Measurements taken from US8815891B2, “Tricyclic derivative or pharmaceutically acceptable salts thereof, preparation method thereof, and pharmaceutical composition containing the same” (Je Il Pharmaceutical Co., Ltd., priority 2008, dated 2014).
Structures can show the parent of a compound that is named as a salt.

Experiments:
Assay type in all cases: cell-based
PARP-1 enzyme = PARP-1 enzyme (Cricetulus griseus (Chinese hamster) (Cricetulus barabensis griseus), UniProt Q9R152); assay: Intracellular PARP inhibitory activity (NAD(P)H released by MMS-treated CHO-K1 cells)
Method: In order to verify the ability of the compounds of the present invention to inhibit the PARP-1 enzyme activity, the amount of NAD(P)H accumulated on cell culture medium was measured.
The Chinese hamster ovary cells (CHO-K1) were cultured in RPMI1640 culture medium containing 10% fetal bovine serum (FBS). The cultured CHO-K1 cells were seeded into 96 well plate by 2.9×10^3 cells/well, and cultured for 16 hours under culture condition of 37° C., 5% CO2. After the culture, the cells were treated with the compounds of the Examples at varying concentrations, and cultured at 37° C. for 2 hours. […] The amount of […] released to the culture medium 3, 4, 5 hours after the treatment with MMS was quantified at 450 nm using Wallac EnVision™ (PerkinElmer Oy, Turku, Finland). The transference numbers of the compounds at varying concentrations according to the present invention are the average values obtained from four wells, and the results were calculated using regression analysis.
The Chinese hamster ovary cells (CHO-K1) were treated with the compounds at varying concentration according to the present invention, and the amount of NAD(P)H released into the culture medium 4 hours after the MMS treatment was quantified.

A549 cell line = assay: Cell growth inhibition of cancer cell lines (SRB assay), A549
Method: (§1) The tests on cell growth inhibitory activity were performed with respect to A549 (US, ATCC), SK-OV-3 (Korea Research Institute of Chemical Technology; KRICT), HT-29 (US, ATCC), MCF-7 cell (US, ATCC), using Sulforhodamin-B <SRB> Assay (1989, US National Cancer Institute (NCI)) which was developed to measure the in vitro anti-cancer activity of the drug. […] The samples of the compounds of the Examples according to the present invention were used for the tests, and before the tests, the samples were dissolved in dimethylsulfoxide and diluted with the culture medium (RPMI 1640) to be used. The final concentration of the sample was varied in the range of 0.3˜100 μM. After the culture medium was removed from the 96 well plates, the diluted sample solution was added by 100 μl, and cultured in 37° C., 5% CO2 culture medium for 72 hours. The time zero (Tz) plates were collected at the time point of adding the sample. Upon completing the culture, the medium was removed from each well along with Tz plate, then cold 10% trichloroacetic acid (TCA) was added by 100 μl per well. The wells were left at 4° C. for 1 hour, so that the cells were fixed into the bottom of the plates. After the cells were fixed, the plates were rinsed with water five to six times to remove the remaining trichloroacetic acid solution, and moisture was completely dried at room temperature. The cells were dyed for 30 minutes by adding the dye solution in which 0.4% sulforhodamine-B was dissolved in 1% acetic acid solution, by 100 μl per dried wells. The above was rinsed again with 1% acetic acid solution five to six times to ensure that sulforhodamine-B which had not attached to the cells was removed. The plates were again dried at room temperature. 100 μl of 10 mM tris-buffer was then added to dissolve the dye, and the optical density (OD) at 520 nm was measured with the microplate reader. GI50 of the sample regarding cancer cell was calculated as explained below. Time zero (Tz), control value (C) and test value (T) were obtained, in which Tz corresponds to OD value of time at which the sample is applied and culture is started, C corresponds to OD value of the well which is cultured without treatment with the sample, and T corresponds to OD value of the well which is treated with the sample and then cultured. The degree of cell growth inhibition of the sample was measured using: If […] [Mathematical Formula 1]
(§2) Further, the ability of Examples 2, 42, 49, 52, 72, 74, 101 to increase growth inhibition effect of temozolomide and SN-38 at 2 μM was determined.

HT-29 Cell line = assay: Cell growth inhibition of cancer cell lines (SRB assay), HT-29
Method: as §1, §2

MCF-7 Cell line = assay: Cell growth inhibition of cancer cell lines (SRB assay), MCF-7
Method: as §1, §2

Sequence of PARP-1 enzyme (Q9R152 whole entry): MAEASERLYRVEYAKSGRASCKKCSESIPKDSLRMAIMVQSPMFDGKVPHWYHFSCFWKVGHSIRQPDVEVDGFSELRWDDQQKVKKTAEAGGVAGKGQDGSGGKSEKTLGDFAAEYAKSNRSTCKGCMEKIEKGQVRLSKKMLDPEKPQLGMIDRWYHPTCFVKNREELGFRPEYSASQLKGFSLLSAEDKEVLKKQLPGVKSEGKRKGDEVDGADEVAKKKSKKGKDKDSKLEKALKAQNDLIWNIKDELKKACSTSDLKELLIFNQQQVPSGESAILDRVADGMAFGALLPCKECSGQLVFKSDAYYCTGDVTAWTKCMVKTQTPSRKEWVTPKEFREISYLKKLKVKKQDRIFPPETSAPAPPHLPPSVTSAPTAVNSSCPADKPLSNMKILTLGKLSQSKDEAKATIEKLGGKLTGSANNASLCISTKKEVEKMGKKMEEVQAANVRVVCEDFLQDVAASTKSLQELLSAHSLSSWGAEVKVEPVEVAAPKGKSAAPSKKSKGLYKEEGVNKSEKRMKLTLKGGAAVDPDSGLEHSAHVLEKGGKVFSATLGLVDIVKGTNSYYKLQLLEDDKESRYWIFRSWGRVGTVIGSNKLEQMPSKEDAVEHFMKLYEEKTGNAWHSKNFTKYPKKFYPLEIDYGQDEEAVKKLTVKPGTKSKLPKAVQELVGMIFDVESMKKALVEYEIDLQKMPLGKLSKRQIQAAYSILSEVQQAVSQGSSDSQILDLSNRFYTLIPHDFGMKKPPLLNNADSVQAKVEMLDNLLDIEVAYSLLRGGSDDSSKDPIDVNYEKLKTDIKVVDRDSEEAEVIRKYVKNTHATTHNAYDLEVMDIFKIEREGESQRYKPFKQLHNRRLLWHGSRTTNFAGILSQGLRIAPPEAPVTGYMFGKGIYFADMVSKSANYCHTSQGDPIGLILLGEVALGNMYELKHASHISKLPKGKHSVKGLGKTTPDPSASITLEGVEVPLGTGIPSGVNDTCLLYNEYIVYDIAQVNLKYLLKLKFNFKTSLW

COc1cc(CN2CCOCC2)cc2[nH]c(=O)c3c(c12)NCCC3 [Example 74, 10-Methoxy-8-(morpholinomethyl)-1,2,3,4-tetrahydrobenzo[h][1,6]naphthyridine-5(6H)-one dihydrochloride]
IC50 (PARP-1 enzyme): 1.48 µM
SN-38 PF50 (A549 cell line; 2 μM compound, GI50 SN-38 alone / GI50 with compound): 2.2
Temozolomide PF50 (A549 cell line; 2 μM compound, GI50 temozolomide alone / GI50 with compound): 3.2
GI50 (A549 cell line; Homo sapiens, 72 hours): 75 µM
SN-38 PF50 (HT-29 Cell line; 2 μM compound): 3.5
Temozolomide PF50 (HT-29 Cell line; 2 μM compound): >2.8
GI50 (HT-29 Cell line; Homo sapiens, 72 hours): 30 µM
SN-38 PF50 (MCF-7 Cell line; 2 μM compound): 3.0
Temozolomide PF50 (MCF-7 Cell line; 2 μM compound): 6.3
GI50 (MCF-7 Cell line; Homo sapiens, MCF7, 72 hours): 45 µM
